The conditions of data set [1]: Imitrex tablets, cited from earlier work.
Data set [2] in a line: Pharmacokinetic two period crossover study of oral sumatriptan with or without anamorelin hydrochloride. To be noted: both sexes, human, plasma, 25 mg/dose. The format is in vivo. The method, then:
The study was a two period crossover study in 22 healthy, normal men and women ages 18-45 years, conducted in open label format. […] Subjects were fasted overnight with a seven day wash out period between periods. […] All samples were analyzed using a validated bioanalytical method (LC-MS-MS).

Results on 1 molecule are retold here after patent US8673947B2, “Enhanced migraine treatments based on ghrelin mimetics” (Helsinn Therapeutics (U.S.), Inc., priority 2009, dated 2014).

The structures appear in SMILES notation. Like-named read-outs stand apart in the source and are kept apart here.

For the molecule `CNS(=O)(=O)Cc1ccc2[nH]cc(CCN(C)C)c2c1` [Sumatriptan, 1-[3-(2-dimethylaminoethyl)-1H-indol-5-yl]-N-methyl-methanesulfonamide], in data set [1] (during a migraine attack), the “time after administration until maximum blood concentrations are reached” value was 2.5 h. Further, the “time after administration to reach maximum concentration in the plasma (average)” value in data set [1] (healthy adults) was 2.0 h. Besides, the AUC(0-t) was found to be 2.53 ng·h/mL in data set [2] (plasma sumatriptan, sumatriptan succinate 25 mg oral tablet, alone or with anamorelin HCl 100 mg oral, fasted healthy subjects, N = 22, read-out: AUC 0-30, Mean); 2.56 ng·h/mL in data set [2] (plasma sumatriptan, sumatriptan succinate 25 mg oral tablet, alone or with anamorelin HCl 100 mg oral, fasted healthy subjects, N = 22, read-out: AUC 0-30, Median); 45.6 ng·h/mL in data set [2] (read-out: AUC last, Mean). Moreover, the Cmax in data set [2] (plasma sumatriptan, sumatriptan succinate 25 mg oral tablet, alone or with anamorelin HCl 100 mg oral, fasted healthy subjects, N = 22, read-out: Cmax, Mean) stood at 20.3 ng/mL; in data set [2] (plasma sumatriptan, sumatriptan succinate 25 mg oral tablet, alone or with anamorelin HCl 100 mg oral, fasted healthy subjects, N = 22, read-out: Cmax, Median), 20.4 ng/mL. Also, the Tmax was 1.12 h in data set [2] (plasma sumatriptan, sumatriptan succinate 25 mg oral tablet, alone or with anamorelin HCl 100 mg oral, fasted healthy subjects, N = 22, read-out: Tmax, Mean (converted)) and 0.883 h in data set [2] (plasma sumatriptan, sumatriptan succinate 25 mg oral tablet, alone or with anamorelin HCl 100 mg oral, fasted healthy subjects, N = 22, read-out: Tmax, Median (converted)).
